Assay results: patent US20230181746A1, “BENZOYLHYDRAZIDE-DERIVED HDAC DEGRADERS AS THERAPEUTICS FOR TREATING CANCER AND OTHER HUMAN DISEASES” (University of Florida Research Foundation, Inc., priority 2020, published 2023)

Molecular target: T1, HDAC6 (Homo sapiens, UniProt Q9UBN7)
T1 construct: endogenous in cells; host or cells: MDA-MB-468
T1 sequence (Q9UBN7 1-1215): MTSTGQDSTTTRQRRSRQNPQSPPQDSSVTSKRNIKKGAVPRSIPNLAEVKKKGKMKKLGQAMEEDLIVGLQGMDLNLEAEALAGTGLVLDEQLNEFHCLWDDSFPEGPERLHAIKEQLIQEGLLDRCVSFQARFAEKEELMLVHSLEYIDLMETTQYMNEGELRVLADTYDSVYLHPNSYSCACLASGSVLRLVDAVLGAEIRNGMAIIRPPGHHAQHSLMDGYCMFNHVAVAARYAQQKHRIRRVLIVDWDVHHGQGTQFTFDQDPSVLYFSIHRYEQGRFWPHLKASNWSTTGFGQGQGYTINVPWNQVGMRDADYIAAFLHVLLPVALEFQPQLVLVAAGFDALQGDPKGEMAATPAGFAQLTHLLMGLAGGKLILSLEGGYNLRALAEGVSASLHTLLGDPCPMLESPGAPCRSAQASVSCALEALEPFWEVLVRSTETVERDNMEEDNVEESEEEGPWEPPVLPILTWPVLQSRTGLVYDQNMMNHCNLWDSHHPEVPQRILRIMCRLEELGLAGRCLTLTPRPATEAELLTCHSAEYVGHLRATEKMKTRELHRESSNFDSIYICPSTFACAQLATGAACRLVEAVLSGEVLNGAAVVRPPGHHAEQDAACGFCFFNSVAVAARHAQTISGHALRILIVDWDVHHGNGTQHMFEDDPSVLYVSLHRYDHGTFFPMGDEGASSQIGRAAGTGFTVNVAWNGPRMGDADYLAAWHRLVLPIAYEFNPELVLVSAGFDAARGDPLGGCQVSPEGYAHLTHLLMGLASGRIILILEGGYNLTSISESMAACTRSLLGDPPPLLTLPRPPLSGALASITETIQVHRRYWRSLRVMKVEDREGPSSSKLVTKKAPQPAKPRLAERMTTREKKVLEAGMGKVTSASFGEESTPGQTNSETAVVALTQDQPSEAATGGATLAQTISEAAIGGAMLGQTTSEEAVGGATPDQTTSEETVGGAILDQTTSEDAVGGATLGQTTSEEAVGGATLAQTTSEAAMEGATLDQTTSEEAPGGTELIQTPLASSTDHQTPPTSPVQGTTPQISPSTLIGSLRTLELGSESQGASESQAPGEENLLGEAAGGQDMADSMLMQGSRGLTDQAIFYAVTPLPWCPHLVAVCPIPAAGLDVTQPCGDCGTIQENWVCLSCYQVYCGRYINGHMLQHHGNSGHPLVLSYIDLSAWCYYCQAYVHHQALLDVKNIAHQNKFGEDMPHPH
Assay: HDAC6 protein level in MDA-MB-468 cells, Western blot
Format: cell-based
Settings: 14 h
Procedure: FIG. 3A: Western blot showing HDAC protein levels in MDA-MB-468 cells treated with the indicated concentration of XZ9002 for 14 h. FIG. 3B: pretreatment with 1 μM MG132, or 10 μM VHL032 for 1 h blocked the degradation of HDAC3 by XZ9002 {125 nM}. […] NC: XZ9002-NC. FIG. 3C: time-dependent experiment in MDA-MB-468 cells after treatment with 125 nM XZ9002 at the indicated time points. FIG. 3D: MDA-MB-468 cells were incubated with 125 nM of XZ9002 for 14 h followed by drug washout, and incubation of the cells in drug-free medium for an additional time. Data are presented as representative figures of two independent experiments.
Cell lines were obtained from ATCC and subsequently authenticated. Cells were cultured with DMEM supplemented with 10% bovine calf serum, penicillin to 10 units/mL, and streptomycin to 10 μg/mL. For viability assays, 5,000 cells/well were seeded in 96-well plates. Compounds at a specified concentration or DMSO were added 24 h later. Viability assays were performed 72 h after compound addition using the CellTiter-Glo reagents (Promega). For colony formation assay, cells (˜1,000 cells/well) were seeded in a 24-well plate in quadruplicates. At 24 h after seeding, DMSO, XZ9002, or XZ9002-NC were added at a specified concentration. […]

SMILES: CCCNNC(=O)c1ccc(-c2ccc(NC(=O)CCCCCCC(=O)N[C@H](C(=O)N3C[C@H](O)C[C@H]3C(=O)N[C@@H](C)c3ccc(-c4scnc4C)cc3)C(C)(C)C)cc2)cc1 [XZ9002, N^1—((S)-1-((2S,4R)-4-hydroxy-2-(((S)-1-(4-(4-methylthiazol-5-yl)phenyl)ethyl)carbamoyl)pyrrolidin-1-yl)-3,3-dimethyl-1-oxobutan-2-yl)-N^5-(4′-(2-propylhydrazine-1-carbonyl)-[1,1′-biphenyl]-4-yl)octanediamide]
- change in HDAC6 protein level: no significant changes
